In patent US20050153894A1, “p21 peptides” (Cyclacel Limited, priority 1999, published 2005):
Square brackets hold non-standard residues; d marks the D form. Phe(4-F) = N[C@@H](Cc1ccc(F)cc1)C(=O)O; Cit = NC(=O)NCCC[C@H](N)C(=O)O; dPsa = O-acetyl-D-phenylserine; Psa = O-acetylphenylserine; Abu = CC[C@H](N)C(=O)O

Assays:
Assay type in all cases: biochemical
CDK2/cyclin A = CDK2/cyclin A (Homo sapiens, UniProt P20248); assay: CDK2/cyclin A kinase assay, substrate pRb(773-928); details: for Relative activity Kinase Inhibition: pRb substrate, [ATP] = 100 μM
From the text: Reactions were stopped on ice, followed by filtration through p81 filterplates (Whatman Polyfiltronics, Kent, UK).

CDK4/Cyclin D1 = biological target: T1, CDK4/Cyclin D1 (Homo sapiens, UniProt P24385); assay: CDK4/Cyclin D1 kinase assay, phosphorylation of GST-Rb; details: for Kinase Inhibition Cyclin D1/CDK4 % Inhibition / Kinase Inhibition Cyclin D1/CDK4 IC30: GST-pRb substrate, [ATP] = 100 μM
T1 construct: made in house; host or cells: CDK4: Sf9 insect cells (baculovirus)
Experimental: (§1) The phosphorylation reaction mixture (total volume 40 μl) consisted of 50 mM HEPES pH 7.4, 20 mM MgCl2, 5 mM EGTA, 2 mM DTT, 20 mM β-glycerophosphate, 2 mM NaF, 1 mM Na3VO4, Protease Inhibitors Cocktail (Sigma, see above), BSA 0.5 mg/ml, 1 μg purified enzyme complex, 10 μl of GST-Rb-Sepharose beads, 100 μM ATP, 0.2 μCi ^32P-ATP. The reaction was carried out for 30 min at 30° C. at constant shaking. At the end of this period 100 μl of 50 mM HEPES, pH 7.4 and 1 mM ATP were added to each well and the total volume was transferred onto GFC filtered plate. The plate was washed 5 times with 200 μl of 50 mM HEPES, pH 7.4 and 1 mM ATP. To each well were added 50 μl scintillant liquid and the radioactivity of the samples was measured on Scintilation counter (Topcount, HP). The IC50 values of different peptides were calculated using GraFit software.
Peptides were synthesized as described above. Cyclin D1 was expressed in E coli BL21(DE3) using PET expression vector and purified from the inclusion bodies. After refolding Cyclin D1 was cross-linked on SulfoLink agarose support (PIERCE). CDK4-6×His was expressed in Sf9 insect cells infected with the appropriate baculovirus construct and purified by metal-affinity chromatography (Quiagen). […] CDK4/Cyclin D1 phosphorilation of Rb was determined by incorporation of radio-labeled phosphate in GST-Rb in 96-well format kinase assay. […] The reaction was carried out for 30 min at 30 C at constant shaking. The GST-Rb-Sepharose beads were washed with 50 mM HEPES and 1 mM ATP and the radioactivity was measured on Scintillation counter (Topcount, HP)

CDK2/Cyclin E = biological target: T2, CDK2/Cyclin E (Homo sapiens, UniProt P24864); assay: CDK2/Cyclin E kinase assay, phosphorylation of GST-Rb; details: for Kinase Inhibition Cyclin E/CDK2 % Inhibition / Kinase Inhibition Cyclin E/CDK2 IC30: GST-pRb substrate, [ATP] = 100 μM
T2 construct: 6xHis; made in house; host or cells: Sf9 insect cells (baculovirus co-expression)
Experimental: as §1

[1] = relative to H-His-Ala-Lys-Arg-Arg-Leu-Ile-Phe-NH2 (SEQ ID No. 36) = 1, CDK2/cyclin A kinase assay
[2] = multiple substitutions (Example 22), relative to SEQ ID No. 36 = 1, CDK2/cyclin A kinase assay
[3] = Arg156 substitutions, relative to H-His-Ala-Lys-Arg-Arg-Leu-Ile-Phe-NH2 (=1)

T1 sequence (P24385 whole entry): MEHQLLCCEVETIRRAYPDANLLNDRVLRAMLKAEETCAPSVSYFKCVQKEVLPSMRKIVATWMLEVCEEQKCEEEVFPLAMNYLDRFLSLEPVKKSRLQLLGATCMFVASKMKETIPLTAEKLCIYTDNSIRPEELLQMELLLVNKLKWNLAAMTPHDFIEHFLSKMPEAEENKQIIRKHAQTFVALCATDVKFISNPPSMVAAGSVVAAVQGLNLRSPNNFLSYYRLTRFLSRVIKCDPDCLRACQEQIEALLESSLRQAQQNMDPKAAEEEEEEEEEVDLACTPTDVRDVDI
T1 sequence (P11802 whole entry partner): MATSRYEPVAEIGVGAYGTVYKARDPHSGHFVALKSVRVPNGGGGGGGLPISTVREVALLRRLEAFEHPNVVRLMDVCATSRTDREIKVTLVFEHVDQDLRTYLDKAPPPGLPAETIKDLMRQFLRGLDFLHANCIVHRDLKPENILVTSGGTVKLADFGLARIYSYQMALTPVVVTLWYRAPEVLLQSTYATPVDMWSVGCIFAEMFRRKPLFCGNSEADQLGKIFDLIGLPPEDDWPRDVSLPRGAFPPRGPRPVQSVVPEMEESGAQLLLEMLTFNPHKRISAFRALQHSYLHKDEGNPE

Substance | Kinase Inhibition Cyclin D1/CDK4 % Inhibition (CDK4/Cyclin D1) | Kinase Inhibition Cyclin D1/CDK4 IC30 (CDK4/Cyclin D1) | Kinase Inhibition Cyclin E/CDK2 % Inhibition (CDK2/Cyclin E) | Kinase Inhibition Cyclin E/CDK2 IC30 (CDK2/Cyclin E) | further results
114 (H-HAKRRLI[Psa]-OH) [compound 114] | – | – | – | – | Relative activity Kinase Inhibition (CDK2/cyclin A; [1]): 22
115 (H-HAKRRLI[dPsa]-OH) [compound 115] | – | – | – | – | Relative activity Kinase Inhibition (CDK2/cyclin A; [1]): <0.1
116 (H-HSKRRLI[Psa]-OH) [compound 116] | – | – | – | – | Relative activity Kinase Inhibition (CDK2/cyclin A; [1]): <0.1
117 (H-HSKRRLI[dPsa]-OH) [compound 117] | – | – | – | – | Relative activity Kinase Inhibition (CDK2/cyclin A; [1]): <0.1
122 (H-AA[Abu]RRLI[Phe(4-F)]-NH2; SMILES CC[C@H](NC(=O)[C@H](C)NC(=O)[C@H](C)N)C(=O)N[C@@H](CCCNC(=N)N)C(=O)N[C@@H](CCCNC(=N)N)C(=O)N[C@@H](CC(C)C)C(=O)N[C@H](C(=O)N[C@@H](Cc1ccc(F)cc1)C(N)=O)[C@@H](C)CC) [compound 122] | – | – | – | – | Relative activity Kinase Inhibition (CDK2/cyclin A; [2]): 60
123 (H-AAKRRLI[Phe(4-F)]-NH2; SMILES CC[C@H](C)[C@H](NC(=O)[C@H](CC(C)C)NC(=O)[C@H](CCCNC(=N)N)NC(=O)[C@H](CCCNC(=N)N)NC(=O)[C@H](CCCCN)NC(=O)[C@H](C)NC(=O)[C@H](C)N)C(=O)N[C@@H](Cc1ccc(F)cc1)C(N)=O) [compound 123] | – | – | – | – | Relative activity Kinase Inhibition (CDK2/cyclin A; [2]): 80
124 (H-AAKR[Cit]LI[Phe(4-F)]-NH2; SMILES CC[C@H](C)[C@H](NC(=O)[C@H](CC(C)C)NC(=O)[C@H](CCCNC(N)=O)NC(=O)[C@H](CCCNC(=N)N)NC(=O)[C@H](CCCCN)NC(=O)[C@H](C)NC(=O)[C@H](C)N)C(=O)N[C@@H](Cc1ccc(F)cc1)C(N)=O) [compound 124] | – | – | – | – | Relative activity Kinase Inhibition (CDK2/cyclin A; [2]): 10
125 (H-AAKRRLA[Phe(4-F)]-NH2; SMILES CC(C)C[C@H](NC(=O)[C@H](CCCNC(=N)N)NC(=O)[C@H](CCCNC(=N)N)NC(=O)[C@H](CCCCN)NC(=O)[C@H](C)NC(=O)[C@H](C)N)C(=O)N[C@@H](C)C(=O)N[C@@H](Cc1ccc(F)cc1)C(N)=O) [compound 125] | – | – | – | – | Relative activity Kinase Inhibition (CDK2/cyclin A; [2]): 20
126 (H-AA[Abu]RSLI[Phe(4-F)]-NH2; SMILES CC[C@H](NC(=O)[C@H](C)NC(=O)[C@H](C)N)C(=O)N[C@@H](CCCNC(=N)N)C(=O)N[C@@H](CO)C(=O)N[C@@H](CC(C)C)C(=O)N[C@H](C(=O)N[C@@H](Cc1ccc(F)cc1)C(N)=O)[C@@H](C)CC) [compound 126] | – | – | – | – | Relative activity Kinase Inhibition (CDK2/cyclin A; [2]): 14
127 (H-AAKQRLI[Phe(4-F)]-NH2; SMILES CC[C@H](C)[C@H](NC(=O)[C@H](CC(C)C)NC(=O)[C@H](CCCNC(=N)N)NC(=O)[C@H](CCC(N)=O)NC(=O)[C@H](CCCCN)NC(=O)[C@H](C)NC(=O)[C@H](C)N)C(=O)N[C@@H](Cc1ccc(F)cc1)C(N)=O) [compound 127] | – | – | – | – | Relative activity Kinase Inhibition (CDK2/cyclin A; [2]): 4
AFYHSKRRLIFS | 72% | 22 ± 4 µM | 70% | 11 ± 2 µM | –
DAYHSKRRLIFS | 76% | 37 ± 6 µM | 85% | 5.9 ± 0.4 µM | –
DFAHSKRRLIFS | 56% | 121 ± 31 µM | 80% | 5.3 ± 0.6 µM | –
DFYASKRRLIFS | 60% | 73 ± 42 µM | 80% | 5.1 ± 0.5 µM | –
DFYHSARRLIFS | 50% | 200 µM | 80% | 12.9 ± 2.4 µM | –
DFYHSK | 10% | – | 45% | 200 µM | –
DFYHSKARLIFS (H-DFYHSKARLIFS-NH2) | 30% | – | 25% | – | –
DFYHSKR | – | – | 50% | 200 µM | –
DFYHSKRALIFS | 30% | – | 70% | 30 ± 8 µM | –
DFYHSKRR (H-DFYHSKRR-NH2) | 10% | – | 40% | – | –
DFYHSKRRAIFS (H-DFYHSKRRAIFS-NH2) | 30% | – | 30% | – | –
DFYHSKRRL | 10% | – | 50% | 200 µM | –
DFYHSKRRLAFS | 61% | 53 ± 20 µM | 80% | 14 ± 3 µM | –
DFYHSKRRLI (H-DFYHSKRRLI-NH2) | 20% | – | 35% | – | –

Substance | Kinase Inhibition Cyclin D1/CDK4 % Inhibition (CDK4/Cyclin D1) | Kinase Inhibition Cyclin D1/CDK4 IC30 (CDK4/Cyclin D1) | Kinase Inhibition Cyclin E/CDK2 % Inhibition (CDK2/Cyclin E) | Kinase Inhibition Cyclin E/CDK2 IC30 (CDK2/Cyclin E) | further results
DFYHSKRRLIAS (H-DFYHSKRRLIAS-NH2) | 35% | – | 20% | – | –
DFYHSKRRLIF | 70% | 13 ± 2 µM | 75% | 2 ± 0.2 µM | –
DFYHSKRRLIFA | 60% | 40 µM | 70% | – | –
FYHSKRR | 20% | – | 45% | >200 µM | –
FYHSKRRL | 20% | – | 48% | >200 µM | –
FYHSKRRLI (H-FYHSKRRLI-NH2) | 20% | – | 45% | – | –
FYHSKRRLIF | 70% | 19 ± 3 µM | 80% | – | –
FYHSKRRLIFS | 70% | 22 ± 5 µM | 80% | 6.8 ± 1.0 µM | –
FYHSKRRLIFSK | 70% | 41 ± 10 µM | 70% | – | –
H-His-Ala-Lys-Arg-Aib-Leu-Ile Phe-NH2 | – | – | – | – | Relative activity Kinase Inhibition (CDK2/cyclin A; [3]): <0.1
H-His-Ala-Lys-Arg-Arg-Leu-Ile-[L-Psa]-OH (H-HAKRRLI[Psa]-OH) | – | – | – | – | inhibition of CDK2/cyclin A (pRb phosphorylation), in words (CDK2/cyclin A; b370: CDK2/cyclin A inhibition and/or cyclin A binding): particularly potent
H-His-Ala-Lys-Arg-Sar-Leu-Ile Phe-NH2 | – | – | – | – | Relative activity Kinase Inhibition (CDK2/cyclin A; [3]): <0.1
HSKRRL | – | – | 45% | >200 µM | –
HSKRRLI (H-HSKRRLI-NH2) | 10% | – | 35% | – | –
HSKRRLIFS | 65% | 32 ± 6 µM | 80% | – | –
HSKRRLIFSKRK | 80% | 34 ± 6 µM | 90% | – | –
KRRLIF | 72% | >200 µM | 80% | – | –
MTDFYHSKRRLI (H-MTDFYHSKRRLI-NH2) | 11% | – | 35% | – | –
SKRRLIF | 72% | 54 µM | 80% | 7.7 ± 0.5 µM | –
SKRRLIFSKRKP | 40% | – | 70% | 46 ± 33 µM | –
SMTDFYHSKRRL (H-SMTDFYHSKRRL-NH2) | 18% | – | 40% | – | –
TDFYHSKRRLIF | 72% | 15 ± 3 µM | 85% | – | –
TDFYHSKRRLIF [p21(148-159)] | – | – | – | – | inhibition of CDK4/Cyclin D1 phosphorylation of GST-Rb, in words (CDK4/Cyclin D1): active; inhibition of CDK2/Cyclin E phosphorylation of GST-Rb, in words (CDK2/Cyclin E): active
TSMTDFYHSKRR (H-TSMTDFYHSKRR-NH2) | 30% | – | 35% | – | –
